Test results reported in article PMC7916522, “In Vitro and In Vivo Anti-Candida Activity and Structural Analysis of Killer Peptide (KP)-Derivatives” (Journal of Fungi, 2021).
Peptide text beside a SMILES is read from it.

Tests used:
LLC-MK2 cells = conditions: 24 h incubation, resazurin assay; for Cell viability (%) 10 µM: peptide 10 µM; for Cell viability (%) 25 µM: peptide 25 µM; for Cell viability (%) 50 µM: peptide 50 µM
Protocol: (§1) A stock solution of peptides (20 mg/mL) was prepared in dimethyl sulfoxide (DMSO), then proper dilutions were made for evaluation of biological activities. DMSO at proper concentration was present in controls (without peptides). All the peptides were evaluated for their hemolytic activity against freshly collected human red blood cells, while cytotoxicity against monkey kidney epithelial cells LLC-MK2 was determined by resazurin assay, as previously described.

human red blood cells = conditions: peptide 25 µM
Protocol: as §1

Candida albicans SC5314 = experiment: CFU assay, neutralization of candidacidal activity by laminarin; type: cell-based; conditions: peptide at its minimal candidacidal concentration
Protocol: The candidacidal activity of KP-derivatives, in comparison to KP, was evaluated by a previously described colony forming unit (CFU) assay against the reference C. albicans strain SC5314 [25]. Briefly, approximately 500 yeast cells were incubated at 37 °C for 6 h in 100 µL of distilled water in the presence or absence (control growth) of the synthetic peptides at serial dilutions. After spreading on Sabouraud Dextrose agar (SDA) plates and incubation for 48–72 h at 30 °C, CFUs were counted. Peptide fungicidal activity was determined as percentage of CFU inhibition, according to the formula 100-(CFUs peptide treated/CFUs control growth) × 100. Each assay was carried out in triplicate and at least two independent experiments were performed for each condition. Half maximal effective concentration (EC50) was calculated by nonlinear regression analysis using GraphPad Prism 5 software (San Diego, CA, USA). CFU assays were also performed in order to verify if laminarin (100 or 200 µg/mL), a soluble β-1,3-glucan, could neutralize the candidacidal activity of KP-derivatives at their minimum fungicidal concentration [25].

Q: What does the source list for `CSCC[C@H](NC(=O)[C@@H](NC(=O)[C@@H](NC(=O)[C@H](CCCCN)NC(=O)[C@H](C)N)C(C)C)[C@@H](C)O)C(=O)N[C@H](C(=O)N[C@@H](CS)C(=O)N[C@@H](CO)C(=O)N[C@@H](C)C(=O)N[C@@H](CO)C(=O)O)[C@@H](C)O` [A10S (KP)] (H-AKVTMTCSAS-OH)?
A: Cell viability (%) 10 µM (LLC-MK2 cells): 93.59%; Cell viability (%) 25 µM (LLC-MK2 cells): 88.20%; Cell viability (%) 50 µM (LLC-MK2 cells): 89.71%; hemolysis after 30 min (human red blood cells; 30 min incubation): 1.13%; C. albicans Growth Inhibition (%) in the Presence of Laminarin 100 µg/mL (Candida albicans SC5314): 96.39 ± 1.68%; C. albicans Growth Inhibition (%) in the Presence of Laminarin 200 µg/mL (Candida albicans SC5314): 1.80 ± 0.49%

Q: Which “Cell viability (%) 10 µM” value (LLC-MK2 cells) does the source give for `CSCC[C@H](NC(=O)[C@@H](NC(=O)[C@@H](NC(=O)[C@H](CCCCN)NC(=O)[C@@H](N)Cc1c[nH]cn1)C(C)C)[C@@H](C)O)C(=O)N[C@H](C(=O)N[C@@H](CS)C(=O)N[C@@H](CO)C(=O)N[C@@H](C)C(=O)N[C@@H](CO)C(=O)O)[C@@H](C)O` [Peptide H10S] (H-HKVTMTCSAS-OH) here?
A: The value was 96.77%.

Q: And the “Cell viability (%) 25 µM” value (LLC-MK2 cells)?
A: Its value is 94.90%.

Q: What about the “Cell viability (%) 50 µM” value (LLC-MK2 cells) of the same molecule?
A: Its value is 90.99%.

Q: What about the “C. albicans Growth Inhibition (%) in the Presence of Laminarin 100 µg/mL” value (Candida albicans SC5314) of the same molecule?
A: The value was 6.20 ± 3.71%.

Q: What does the source list for `CSCC[C@H](NC(=O)[C@@H](NC(=O)[C@@H](NC(=O)[C@@H](N)CCCCN)C(C)C)[C@@H](C)O)C(=O)N[C@H](C(=O)N[C@@H](CS)C(=O)N[C@@H](CO)C(=O)N[C@@H](C)C(=O)N[C@@H](CO)C(=O)O)[C@@H](C)O` [Peptide K9S] (H-KVTMTCSAS-OH)?
A: Cell viability (%) 10 µM (LLC-MK2 cells): 100%; Cell viability (%) 25 µM (LLC-MK2 cells): 98.55%; Cell viability (%) 50 µM (LLC-MK2 cells): 95.86%; C. albicans Growth Inhibition (%) in the Presence of Laminarin 100 µg/mL (Candida albicans SC5314): 31.09 ± 1.71%; C. albicans Growth Inhibition (%) in the Presence of Laminarin 200 µg/mL (Candida albicans SC5314): 0.68 ± 0.97%

Q: For `CSCC[C@H](NC(=O)[C@@H](NC(=O)[C@@H](NC(=O)[C@H](CCCCN)NC(=O)[C@@H](N)CCCCN)C(C)C)[C@@H](C)O)C(=O)N[C@H](C(=O)N[C@@H](CS)C(=O)N[C@@H](CO)C(=O)N[C@@H](C)C(=O)N[C@@H](CO)C(=O)O)[C@@H](C)O` [Peptide K10S] (H-KKVTMTCSAS-OH), which “Cell viability (%) 10 µM” value (LLC-MK2 cells) is on record?
A: Its value is 93.74%.

Q: And the “Cell viability (%) 25 µM” value (LLC-MK2 cells)?
A: Its value is 100%.

Q: What about the “Cell viability (%) 50 µM” value (LLC-MK2 cells) of the same molecule?
A: The value was 90.95%.

Q: What about the “hemolysis after 120 min” value (human red blood cells; 120 min incubation) of the same molecule?
A: The value was 2.42%.

Q: What about the “C. albicans Growth Inhibition (%) in the Presence of Laminarin 100 µg/mL” value (Candida albicans SC5314) of the same molecule?
A: Its value is 1.07 ± 0.39%.

Q: Which results are given for `CSCC[C@H](NC(=O)[C@@H](NC(=O)[C@@H](NC(=O)[C@H](CCCCN)NC(=O)[C@@H](N)CC(C)C)C(C)C)[C@@H](C)O)C(=O)N[C@H](C(=O)N[C@@H](CS)C(=O)N[C@@H](CO)C(=O)N[C@@H](C)C(=O)N[C@@H](CO)C(=O)O)[C@@H](C)O` [Peptide L10S] (H-LKVTMTCSAS-OH)?
A: Cell viability (%) 10 µM (LLC-MK2 cells): 95.70%; Cell viability (%) 25 µM (LLC-MK2 cells): 93.44%; Cell viability (%) 50 µM (LLC-MK2 cells): 98.07%; C. albicans Growth Inhibition (%) in the Presence of Laminarin 100 µg/mL (Candida albicans SC5314): 0%

Q: Which “Cell viability (%) 10 µM” value (LLC-MK2 cells) does the source give for `CSCC[C@H](NC(=O)[C@@H](NC(=O)[C@@H](NC(=O)[C@H](CCCCN)NC(=O)[C@@H]1CCCN1)C(C)C)[C@@H](C)O)C(=O)N[C@H](C(=O)N[C@@H](CS)C(=O)N[C@@H](CO)C(=O)N[C@@H](C)C(=O)N[C@@H](CO)C(=O)O)[C@@H](C)O` [Peptide P10S] (H-PKVTMTCSAS-OH) here?
A: Its value is 93.25%.

Q: And the “Cell viability (%) 25 µM” value (LLC-MK2 cells)?
A: The value was 90.20%.

Q: What about the “Cell viability (%) 50 µM” value (LLC-MK2 cells) of the same molecule?
A: The value was 89.77%.

Q: And the “C. albicans Growth Inhibition (%) in the Presence of Laminarin 100 µg/mL” value (Candida albicans SC5314)?
A: Its value is 97.71 ± 0.46%.

Q: What about the “C. albicans Growth Inhibition (%) in the Presence of Laminarin 200 µg/mL” value (Candida albicans SC5314) of the same molecule?
A: The value was 3.10 ± 4.38%.

Q: What does the source list for `CSCC[C@H](NC(=O)[C@@H](NC(=O)[C@@H](NC(=O)[C@H](CCCCN)NC(=O)[C@@H](N)CO)C(C)C)[C@@H](C)O)C(=O)N[C@H](C(=O)N[C@@H](CS)C(=O)N[C@@H](CO)C(=O)N[C@@H](C)C(=O)N[C@@H](CO)C(=O)O)[C@@H](C)O` [Peptide S10S] (H-SKVTMTCSAS-OH)?
A: Cell viability (%) 10 µM (LLC-MK2 cells): 99.77%; Cell viability (%) 25 µM (LLC-MK2 cells): 99.75%; Cell viability (%) 50 µM (LLC-MK2 cells): 91.09%; C. albicans Growth Inhibition (%) in the Presence of Laminarin 100 µg/mL (Candida albicans SC5314): 99.12 ± 0.50%; C. albicans Growth Inhibition (%) in the Presence of Laminarin 200 µg/mL (Candida albicans SC5314): 60.73 ± 13.13%

Q: With `CSCC[C@H](NC(=O)[C@@H](NC(=O)[C@@H](NC(=O)[C@H](CCCCN)NC(=O)[C@@H](N)Cc1ccc(O)cc1)C(C)C)[C@@H](C)O)C(=O)N[C@H](C(=O)N[C@@H](CS)C(=O)N[C@@H](CO)C(=O)N[C@@H](C)C(=O)N[C@@H](CO)C(=O)O)[C@@H](C)O` [Peptide Y10S] (H-YKVTMTCSAS-OH) as the molecule, how does the “Cell viability (%) 10 µM” value (LLC-MK2 cells) read?
A: The value was 96.89%.

Q: And the “Cell viability (%) 25 µM” value (LLC-MK2 cells)?
A: Its value is 95.35%.

Q: And the “Cell viability (%) 50 µM” value (LLC-MK2 cells)?
A: The value was 97.18%.

Q: And the “C. albicans Growth Inhibition (%) in the Presence of Laminarin 100 µg/mL” value (Candida albicans SC5314)?
A: Its value is 5.57 ± 4.84%.
